{
  "source": "patent US20260115261A1",
  "about": "“COLLAGEN PEPTIDE-BASED MEDICAMENT COMPOSITIONS AND USES THEREOF” (SUSTAIN HOLDINGS, LLC, priority 2023, published 2026)",
  "key": {"[1]": {"tested_on": "optic nerve", "assay": "Optic nerve crush, axon repair after intravitreal injection", "assay_type": "in vivo, mice", "conditions": "for greater abundance of CTB-containing axon segments vs vehicle: measurements above the median, p≤0.02", "description": "To further examine the effects of CMPs on nerve regeneration, optic nerve crush experiments were performed. This approach is a useful model of traumatic optic neuropathy and for assessing potential neuroreparative and neuroregenerative strategies (Cameron, E G et al., Bio-protocol 10(6) (Mar. 20, 2020), doi: 10.21769/BioProtoc.3559). Axon degeneration in this injury model also involves degradation of matrix collagen associated with robust tissue remodeling (Bernardo-Colon, A et al., Cell Death Dis. 9:1097 (2018); Sharma, T P et al., Mol. Neurodegener. 9:14 (2014)). Mice were subjected to […] nerve crush, and then three days later received an intravitreal injection of vehicle (DMSO) or of fluorescently tagged CMP 13A (SEQ ID NO:6). Optic nerves were longitudinally sectioned in the site of the injury two weeks following nerve crush, and sections were examined for axon length (via cholera toxin B labeling) and CMP localization (via fluorescence microscopy). Sections were also labeled with glial fibrillary acidic protein (GFAP) to localize astrocyte glia in the sections. […] Repaired axons were largely coincident with localized patches of CMP (FIG. 6C, arrows). Scale=200 μm (FIG. 6A) or 100 μm (FIGS. 6B,C).\nNext, we quantitated the number of CTB+ green axon segments at discrete distances distal from the crush site (towards the brain). […] Even so, in both cohorts, there were a number of samples with few, if any, axons distal from the crush site, leading to substantial variability (FIG. 7B, inset). To better estimate the magnitude of the effect due to CMP 13A compared to vehicle, we pooled the measurements above the median at each location into three bins: 50-100 μm, 200-300 μm, and 400 μm and further from the injury site. […] Intact axon segments in these nerves were also longer than those in nerves from vehicle-treated eyes. The mean length of intact axon segments in nerves from CMP 13A-treated eyes was 51% greater than that in the vehicle cohort: 122.6±5.5 vs. 81.1±8.3 μm (p<0.001; FIG. 7D). Similarly, the mean for the longest 25 segments in the CMP 13A nerves was nearly 80% greater than that for vehicle nerves: 228.1±12.9 vs. 127.8±10.5 μm (p<0.001; FIG. 7E)."}, "[2]": {"tested_on": "cerebrovasculature of ApoE−/− STZ mice", "assay": "Diabetic atherosclerosis mouse model (ApoE−/− + STZ + high fat diet), cerebrovascular immunohistochemistry", "assay_type": "in vivo", "description": "Animals. All animal studies were conducted in accordance with the NIH guide for the care and use of laboratory animals and approved by the Vanderbilt University Institutional Animal Care and Use Committee. For the studies described, 12-week-old ApoE^−/− (#002052) or C57/B6J wildtype (WT) (#000664) mice were obtained from Jackson Laboratories. Mice were housed in a facility managed by Vanderbilt University Division of Animal Care with ad libitum access to water and standard diet followed by ad libitum access to 45% high fat diet (Research Diet Inc.; Catalog #D12451) starting at the correct study time point. Mice were subjected to 12-hr. light/dark cycle.\nAnimal Model of Diabetic Atherosclerosis. A diabetic atherosclerosis mouse model was implemented by combining ApoE^−/− mice with a streptozocin STZ-induced diabetic phenotype. Prior to STZ injection and diet change, baseline fasting blood glucose measurements and weights were obtained. To induce hyperglycemia ApoE^−/− mice were injected with STZ (50 mg/Kg in 10 mM sodium citrate, pH4.5; Millipore Sigma Catalog #S0130) intraperitoneally for five consecutive days. For the duration of STZ injections, mice received drinking water supplemented with 10% sucrose. One week after the final STZ injection, blood glucose levels were measured to confirm hyperglycemia. Mice were fasted for 6 hours prior to glucose measurement and then anesthetized with 2.5% isoflurane. Tail snips were taken, and one drop of blood was placed on test strips to obtain readings. Tails were then stemmed of bleeding using a silver nitrate applicator (Avoca reference number #7482) before returning mice to their cages. Any mice not registering as hyperglycemic were removed from the study. Remaining mice were then switched to a 45% high fat diet (HFD) to accelerate atherosclerotic plaque formation. After 1 week on HFD, mice were randomly assigned to receive intravenous CMP (n=5) or PBS (1×PBS, n=4) once weekly for 12 weeks. Upon conclusion of the study, mice were anesthetized via intraperitoneal pentobarbital injection followed by transcardial perfusion of 1×PBS and 4% paraformaldehyde (PFA). One day prior to sacrifice, mice were injected via tail vein injection with Sulfo-NHS-Biotin in sterile 1×PBS (Thermo-Fisher; Catalog #21335).\nIntravenous Administration of CMPs. The CMP used in the present Example was a 21-aa single-strand peptide consisting of a 7-repeat sequence of a tripeptide of 4-fluoroproline (Flp), hydroxyproline (Hyp), and glycine (Gly), and abbreviated as (cis-Flp-Hyp-Gly)7 (SEQ ID NO:6). This CMP was manufactured using standard solid-phase peptide synthesis chemistry in limited quantity by Bachem, AG (Germany). CMP was dissolved in sterile 1×PBS at a concentration of […] and sterilized using a 0.22 µm filter (Millipore Sigma, Burlington, MA, USA). Mice were weighed and restrained in an apparatus designed for tail vein injection. Tails were heated to dilate the veins prior to weekly injection, and […] of CMP in sterile 1×PBS (vehicle) was injected to accommodate a final concentration in each animal of 0.1 mg/Kg. An additional batch of this CMP was produced with attachment of the TideFluor™ 2 moiety (AAT Bioquest, Sunnyvale, CA, United States) to the peptide as a fluorescent reporter. This labeled CMP was injected intravenously at 100 μM concentration (100 μL) to identify binding in WT vs. ApoE^−/−+STZ mice. CMP was injected 48 hours prior to sacrifice and again immediately before transcardial perfusion of 4% PFA. One day prior to euthanasia, tail veins were injected with Sulfo-NHS biotin to track vascular leakage. Sulfo-NHS Biotin (Thermo-Fisher; Catalog #21335) was dissolved in sterile 1×PBS (20 mg/mL) and sterilized through a […] filter. Mice were then restrained in tail vein apparatus and injected intravenously with 100 μL Sulfo-NHS biotin. […]"}, "[3]": {"tested_on": "dorsal root ganglion (DRG) neurons", "assay": "DRG explant neurite outgrowth on MMP-1-digested collagen treated with CMP", "assay_type": "cell-based, rat", "description": "Plates were then rinsed with culture medium, and DRG neuronal cells were plated uniformly on plates having one of three surface coating conditions: (1) intact collagen; (2) MMP1-digested collagen; and (3) MMP1-digested collagen+CMP. Plates were then incubated at 37° C. for 24 hours or 48 hours, and then examined for morphology and neurite outgrowth by inverted brightfield microscopy.\nTo measure neurite outgrowth accurately, explants were visualized live using multifocal high-magnification phase contrast microscopy to optimize identification and measurement of the longest neurite (FIG. 2A, white arrow) and the size of the DRG explant growth field."}},
  "data": [
    {"substance": "Flp-Hyp-Gly-Flp-Hyp-Gly-Flp-Hyp-Gly-Flp-Hyp-Gly-Flp-Hyp-Gly-Flp-Hyp-Gly-Flp-Hyp-Gly [CMP 13A]", "values": [
      {"measurement": "greater abundance of CTB-containing axon segments vs vehicle", "setting": "[1]; 50-100 μm from injury site", "value": 29, "unit": "%"},
      {"measurement": "greater abundance of CTB-containing axon segments vs vehicle", "setting": "[1]; 200-300 μm from injury site", "value": 39, "unit": "%"},
      {"measurement": "greater abundance of CTB-containing axon segments vs vehicle", "setting": "[1]; 400 μm and further from injury site", "value": 96, "unit": "%"},
      {"measurement": "number of CTB+ axon segments at discrete distances distal from the crush site", "setting": "[1]; fluorescently tagged CMP 13A intravitreal 3 days after crush, two weeks after crush, vs vehicle (DMSO)", "value": "more axon segments than nerves from vehicle eyes at each location examined"},
      {"measurement": "distance of CTB+ segments distal from the injury, some samples", "setting": "[1]; two weeks after crush", "value": "≤ 1", "unit": "mm"},
      {"measurement": "mean for the longest 25 segments", "setting": "[1]; two weeks after crush", "value": "228.1±12.9", "unit": "μm"},
      {"measurement": "mean length of intact axon segments", "setting": "[1]; two weeks after crush", "value": "122.6±5.5", "unit": "μm"},
      {"measurement": "mean for the longest 25 segments, greater than vehicle nerves", "setting": "[1]; two weeks after crush, p<0.001", "value": "~80", "unit": "%"},
      {"measurement": "mean length of intact axon segments, greater than vehicle cohort", "setting": "[1]; two weeks after crush, p<0.001", "value": 51, "unit": "%"},
      {"measurement": "vascular leakage of biotin", "setting": "[2]; 3 months post-treatment, Sulfo-NHS biotin intravenous one day before euthanasia", "value": "not observed"},
      {"measurement": "distance from individual astrocytes to the nearest blood vessel", "setting": "[2]; CA1 (p<0.0001) and DG (p=0.0004)", "value": "closer to blood vessels than in PBS-treated mice"},
      {"measurement": "GFAP density vs PBS", "setting": "[2]; CA1 (p=0.07) and DG (p=0.06)", "value": "not significantly different"},
      {"measurement": "biotin intensity (secondary measure of vessel density) vs PBS", "setting": "[2]; CA1, DG and cortex", "value": "increased biotin labeling"},
      {"measurement": "CD31 intensity vs PBS", "setting": "[2]; CA1, cortex and DG (p=0.02, p<0.0001, p=0.01), 0.1 mg/Kg intravenous once weekly for 12 weeks", "value": "increased"},
      {"measurement": "increase of collagen IV intensity relative to PBS-treated controls", "setting": "[2]; CA1, p=0.01", "value": 170, "unit": "%"},
      {"measurement": "number of astrocyte soma vs PBS", "setting": "[2]; CA1, p=0.02", "value": "decreased"},
      {"measurement": "area of CD31-positive vessels vs PBS", "setting": "[2]; CA1 and cortex (p=0.001 and p<0.0001), (cis-Flp-Hyp-Gly)7 0.1 mg/Kg intravenous once weekly for 12 weeks", "value": "significant increase"},
      {"measurement": "CD31 intensity as a ratio of biotin intensity vs PBS", "setting": "[2]; DG only (p=0.04)", "value": "significantly increased"},
      {"measurement": "vessel (CD31) area vs control", "setting": "[2]; DG, 0.1 mg/Kg intravenous once weekly for 12 weeks", "value": "no significant difference"},
      {"measurement": "increase of collagen IV intensity relative to PBS-treated controls", "setting": "[2]; DG, p=0.04", "value": 52, "unit": "%"},
      {"measurement": "number of astrocyte soma vs PBS", "setting": "[2]; DG, p=0.31", "value": "not significantly different"},
      {"measurement": "vascular structure by biotin labeling", "setting": "[2]; all brain regions, vs shorter, more fragmented vessels in PBS-treated mice", "value": "longer, more complex vessels with increased branching"},
      {"measurement": "increase of collagen IV intensity relative to PBS-treated controls", "setting": "[2]; cortex, p=0.01", "value": 175, "unit": "%"}
    ]},
    {"substance": "Pro-Flp-Gly-Pro-Flp-Gly-Pro-Flp-Gly-Pro-Flp-Gly-Pro-Flp-Gly-Pro-Flp-Gly-Pro-Flp-Gly [CMP 09C]", "values": [
      {"measurement": "longest neurite outgrowth, greater than intact collagen", "setting": "[3]; 48 hours, MMP1-digested collagen + CMP 100 μM, normalized to intact collagen, p<0.036", "value": 21, "unit": "%"},
      {"measurement": "neurite outgrowth of DRG explants (phase contrast micrographs)", "setting": "[3]; explants on damaged (MMP-1-digested) collagen treated with CMP 100 μM, 24 and 48 hours", "value": "improved outgrowth"}
    ]}
  ]
}
